We go through 4 compounds from US12122816B2, “Long acting peptide tyrosine tyrosine (PYY) analogs and methods of use” (Intarcia Therapeutics, Inc., priority 2020, dated 2024).

The structures appear in SMILES notation. Where two headings read alike, the source gives them in different places. Starred links: 1 amine or outer side, 2 acyl side, 3 side chain; linkers in the order of their positions; H or OH if unused. Residues, ends and D or L forms follow the SMILES beside them. Groups on a side chain read outwards from the residue. *: point of attachment. C20 diacid = O=C(O)CCCCCCCCCCCCCCCCCCC(=O)*; γGlu = O=C(O)[C@H](CCC(=O)[*:2])N[*:1] Bounds are passed on as bounds.

Data set [1] can be described thus: In vitro stability in subcutaneous (SC) tissue homogenates. Type of data set: in vitro ADME. As to conditions: subcutaneous tissue homogenate, pH 7.4; human SC tissue homogenate 1.0 mg protein/mL, 10 mcM peptide, 37° C.; read-out: (H)SC tissue stability t½ (converted). As for the experimental part: In vitro incubations in subcutaneous (SC) tissue homogenates were used to characterize the ability of peptides to resist pre-systemic degradation by proteases and peptidases after SC administration. […] Peptides with high SC bioavailability are stable in this assay, while peptides with low SC bioavailability are unstable in this assay.
Human SC tissue was homogenized in cold 25 mM HEPES buffer (pH 7.4, 10-fold volume based on sample weight), and then filtered through a double layer of cheesecloth. The filtrates were aliquoted, flash frozen on a methanol/dry ice bath and stored at −80° C. The protein concentration of each pooled batch was determined using the BCA protein assay. Thawed stocks of human SC tissue homogenates were diluted to 1.0 mg protein/mL in 25 mM HEPES buffer (pH 7.4) and aliquoted into a 96-well plate. The diluted SC homogenates were pre-warmed for 10 minutes at 37° C. […] Reactions were maintained at 37° C. in a shaking water bath. […] Quenched samples were centrifuged at 2178×g for 10 min and then a portion of the supernatants were transferred to a clean 96-well plate and diluted 1:10 with water. Samples were analyzed by UPLC-MS/MS.

The target in data set [2] is T1, human Y2 receptor (Homo sapiens, UniProt P49146).
T1 sequence (P49146 1-381): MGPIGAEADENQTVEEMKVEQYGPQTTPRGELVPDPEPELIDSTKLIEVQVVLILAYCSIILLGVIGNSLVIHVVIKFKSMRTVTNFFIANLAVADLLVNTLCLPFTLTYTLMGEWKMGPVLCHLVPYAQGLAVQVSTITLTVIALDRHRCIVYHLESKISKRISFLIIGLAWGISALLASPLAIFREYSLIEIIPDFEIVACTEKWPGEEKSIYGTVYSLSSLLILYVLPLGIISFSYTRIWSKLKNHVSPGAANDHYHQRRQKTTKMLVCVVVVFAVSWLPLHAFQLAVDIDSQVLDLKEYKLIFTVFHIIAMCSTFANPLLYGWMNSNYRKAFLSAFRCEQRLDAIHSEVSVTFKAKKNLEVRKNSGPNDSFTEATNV
In words: NPY receptor functional assay (cAMP, HEK-CNG cells, ACTOne membrane potential dye). As to conditions: NPY2R pEC50, HEK-CNG cells; standard PYY(3-36); species (human or rat) not given. Type of data set: cell-based. A digest of the protocol: (§1)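 HEK-CNG cells stably expressing each human receptor; peptides added in triplicate for 50 minutes at room temperature, with agonism read as decreased isoproterenol-induced membrane potential dye signal (final/initial read).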

Data set [3] concerns the target T2, human Y5 receptor (Homo sapiens, UniProt Q15761).
T2 sequence (Q15761 1-445): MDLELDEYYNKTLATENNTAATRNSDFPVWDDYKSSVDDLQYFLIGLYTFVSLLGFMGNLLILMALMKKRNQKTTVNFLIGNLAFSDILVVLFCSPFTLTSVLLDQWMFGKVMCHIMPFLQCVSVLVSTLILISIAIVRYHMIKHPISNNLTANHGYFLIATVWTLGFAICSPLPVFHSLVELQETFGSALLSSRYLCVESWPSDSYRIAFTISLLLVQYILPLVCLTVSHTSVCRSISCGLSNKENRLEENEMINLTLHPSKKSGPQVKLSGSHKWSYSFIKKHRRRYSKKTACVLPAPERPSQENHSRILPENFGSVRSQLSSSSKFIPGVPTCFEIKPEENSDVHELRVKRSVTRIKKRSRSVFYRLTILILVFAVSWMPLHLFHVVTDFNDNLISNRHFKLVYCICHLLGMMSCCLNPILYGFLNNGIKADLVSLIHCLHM
The data set is described as above. Type of data set: cell-based. As to conditions: NPY5R pEC50, HEK-CNG cells; standard NPY; species (human or rat) not given. A digest of the protocol: as §1

The nature of data set [4]: In vitro metabolic stability in kidney brush border membranes (kBBM). Type of data set: in vitro ADME. As to conditions: 1 mcM peptide, 37° C. The protocol: In vitro incubations in kidney brush border membrane (kBBM) preparations were used to characterize the ability of peptides to resist degradation by proteases and peptidases in the systemic circulation. kBBM were selected because they contain a high concentration of a diverse set of proteases and peptidases, many of which are present throughout the body.
Brush border membranes from rat and human kidney tissue were prepared via centrifugation and stored at −70° C. Thawed stocks of rat or human kBBM were diluted to the appropriate concentration in 25 mM HEPES buffer (pH 7.4) containing 1% casein and aliquoted into a 96-well plate. The kBBM solutions were pre-warmed for 10 minutes at 37° C. […] The final concentration of kBBM in each incubation was 50 mcg protein/mL. Reactions were maintained at 37° C. in a shaking water bath. […] Quenched samples were centrifuged at 2178×g for 10 min and then a portion of the supernatants were transferred to a clean 96-well plate and diluted 1:1 with water. Samples were analyzed by UPLC-MS/MS.

[5] abbreviates: pH 7.4, human kBBM 50 mcg protein/mL, read-out: hkBBM t½ (converted).

As to `CC(C)C[C@H](NC(=O)[C@H](CC(=O)O)NC(=O)[C@H](CCCCN)NC(=O)[C@H](Cc1ccc(O)cc1)NC(=O)[C@H](Cc1ccc(O)cc1)NC(=O)[C@H](CCCNC(=N)N)NC(=O)[C@H](CC(N)=O)NC(=O)[C@H](Cc1c[nH]c2ccccc12)NC(=O)[C@H](CCC(=O)O)NC(=O)[C@H](CCCCN)NC(=O)[C@@H]1CCCN1C(=O)[C@H](CO)NC(=O)[C@H](C)NC(=O)[C@H](CC(=O)O)NC(=O)[C@H](CCCCNC(=O)CC[C@H](NC(=O)CC[C@H](NC(=O)CCCCCCCCCCCCCCCCCCC(=O)O)C(=O)O)C(=O)O)NC(=O)CNC(=O)[C@@H]1CCCN1C(=O)[C@H](CCCCN)NC(=O)[C@H](CCC(=O)O)NC(=O)[C@@H]1CCCN1C(=O)[C@H](CCCCN)NC(=O)[C@@H]1CCCN1)C(=O)N[C@@H](CCCNC(=N)N)C(=O)N[C@@H](Cc1c[nH]cn1)C(=O)N[C@@H](Cc1ccc(O)cc1)C(=O)N[C@@H](CC(C)C)C(=O)N[C@@H](CC(N)=O)C(=O)N[C@@H](Cc1c[nH]c2ccccc12)C(=O)N[C@@H](CC(C)C)C(=O)N[C@H](C(=O)N[C@@H](CCCNC(=N)N)C(=O)N[C@@H](CCC(N)=O)C(=O)N[C@@H](CCCNC(=N)N)C(=O)N[C@@H](Cc1ccccc1)C(N)=O)[C@@H](C)O` [Compound A27] (H-PKPEKPGK([γGlu-γGlu-C20 diacid])DASPKEWNRYYKDLRHYLNWLTRQRF-NH2; N-terminus assumed), the half-life at 10 mcM in data set [1] was 0.2 h. Besides, the results for the half-maximal effective concentration (EC50) in data set [2] and in data set [3] were 0.02 nM and 1.26 nM, respectively. Besides, in data set [4] (setting [5]), the half-life at 1 mcM is 10 h.

In the case of `CC(C)C[C@H](NC(=O)[C@H](CC(=O)O)NC(=O)[C@H](CCCCNC(=O)CC[C@H](NC(=O)COCCOCCNC(=O)COCCOCCNC(=O)CC[C@H](NC(=O)CCCCCCCCCCCCCCCCCCC(=O)O)C(=O)O)C(=O)O)NC(=O)[C@H](Cc1ccc(O)cc1)NC(=O)[C@H](Cc1ccc(O)cc1)NC(=O)[C@H](CCCNC(=N)N)NC(=O)[C@H](CC(N)=O)NC(=O)[C@H](Cc1c[nH]c2ccccc12)NC(=O)[C@H](CCC(=O)O)NC(=O)[C@H](CCC(=O)O)NC(=O)[C@@H]1CCCN1C(=O)[C@H](CO)NC(=O)[C@H](C)NC(=O)[C@H](CC(=O)O)NC(=O)[C@H](CCCCN)NC(=O)CNC(=O)[C@@H]1CCCN1C(=O)[C@H](C)NC(=O)[C@H](CCC(=O)O)NC(=O)[C@@H]1CCCN1C(=O)[C@H](CCCCN)NC(=O)[C@@H]1CCCN1)C(=O)N[C@@H](CCCNC(=N)N)C(=O)N[C@@H](Cc1c[nH]cn1)C(=O)N[C@@H](Cc1ccc(O)cc1)C(=O)N[C@@H](CC(C)C)C(=O)N[C@@H](CC(N)=O)C(=O)N[C@@H](Cc1c[nH]c2ccccc12)C(=O)N[C@@H](CC(C)C)C(=O)N[C@H](C(=O)N[C@@H](CCCNC(=N)N)C(=O)N[C@@H](CCC(N)=O)C(=O)N[C@@H](CCCNC(=N)N)C(=O)N[C@@H](Cc1ccccc1)C(N)=O)[C@@H](C)O` [Compound A16], in data set [1], the half-life at 10 mcM is 7.3 h. Moreover, the results for the EC50 in data set [2] and in data set [3] were 0.0631 nM and 0.794 nM, respectively. The half-life at 1 mcM is > 12 h in data set [4] (setting [5]) and > 12 h in data set [4] (pH 7.4, rat kBBM 50 mcg protein/mL, read-out: rkBBM t½).

On to `CC(C)C[C@H](NC(=O)[C@H](CC(=O)O)NC(=O)[C@H](CCCCNC(=O)CC[C@H](NC(=O)CC[C@H](NC(=O)CCCCCCCCCCCCCCCCCCC(=O)O)C(=O)O)C(=O)O)NC(=O)[C@H](Cc1ccc(O)cc1)NC(=O)[C@H](Cc1ccc(O)cc1)NC(=O)[C@H](CCCNC(=N)N)NC(=O)[C@H](CC(=O)O)NC(=O)[C@H](Cc1c[nH]c2ccccc12)NC(=O)[C@H](CCC(=O)O)NC(=O)[C@H](CCCCN)NC(=O)[C@@H]1CCCN1C(=O)[C@H](CO)NC(=O)[C@H](C)NC(=O)[C@H](CC(=O)O)NC(=O)[C@H](CCC(=O)O)NC(=O)CNC(=O)[C@@H]1CCCN1C(=O)[C@H](CCCCN)NC(=O)[C@H](CCC(=O)O)NC(=O)[C@@H]1CCCN1C(=O)[C@H](CCCCN)NC(=O)[C@@H]1CCCN1)C(=O)N[C@@H](CCCNC(=N)N)C(=O)N[C@@H](Cc1c[nH]cn1)C(=O)N[C@@H](Cc1ccc(O)cc1)C(=O)N[C@@H](CC(C)C)C(=O)N[C@@H](CC(N)=O)C(=O)N[C@@H](Cc1c[nH]c2ccccc12)C(=O)N[C@@H](CC(C)C)C(=O)N[C@H](C(=O)N[C@@H](CCCNC(=N)N)C(=O)N[C@@H](CCC(N)=O)C(=O)N[C@@H](CCCNC(=N)N)C(=O)N[C@@H](Cc1ccccc1)C(N)=O)[C@@H](C)O` [Compound A34], for which the half-life at 10 mcM in data set [1] is 4.9 h. Moreover, the EC50 was 0.0631 nM in data set [2] and 1.58 nM in data set [3]. For the same compound, the half-life at 1 mcM in data set [4] (setting [5]) was 6.7 h.

For `CC(C)C[C@H](NC(=O)[C@H](CC(=O)O)NC(=O)[C@H](CCCCNC(=O)CC[C@H](NC(=O)CC[C@H](NC(=O)CCCCCCCCCCCCCCCCCCC(=O)O)C(=O)O)C(=O)O)NC(=O)[C@H](Cc1ccc(O)cc1)NC(=O)[C@H](Cc1ccc(O)cc1)NC(=O)[C@H](CCCNC(=N)N)NC(=O)[C@H](CC(N)=O)NC(=O)[C@H](Cc1c[nH]c2ccccc12)NC(=O)[C@H](CCC(=O)O)NC(=O)[C@H](CCCCN)NC(=O)[C@@H]1CCCN1C(=O)[C@H](CO)NC(=O)[C@H](C)NC(=O)[C@H](CC(=O)O)NC(=O)[C@H](CCC(=O)O)NC(=O)CNC(=O)[C@@H]1CCCN1C(=O)[C@H](CCCCN)NC(=O)[C@H](CCC(=O)O)NC(=O)[C@@H]1CCCN1C(=O)[C@H](CCCCN)NC(=O)[C@@H]1CCCN1)C(=O)N[C@@H](CCCNC(=N)N)C(=O)N[C@@H](Cc1c[nH]cn1)C(=O)N[C@@H](Cc1ccc(O)cc1)C(=O)N[C@@H](CC(C)C)C(=O)N[C@@H](CC(N)=O)C(=O)N[C@@H](Cc1c[nH]c2ccccc12)C(=O)N[C@@H](CC(C)C)C(=O)N[C@H](C(=O)N[C@@H](CCCNC(=N)N)C(=O)N[C@@H](CCC(N)=O)C(=O)N[C@@H](CCCNC(=N)N)C(=O)N[C@@H](Cc1ccccc1)C(N)=O)[C@@H](C)O` [Compound A29], the half-life at 10 mcM in data set [1] is 1.1 h. The concentration for a half-maximal effect (EC50) in data set [2] was 0.0126 nM; in data set [3] it was 1 nM. For the same compound, the half-life at 1 mcM in data set [4] (setting [5]) was 8.7 h.
